Like-named read-outs stand apart in the source and are kept apart here. Some results are limits rather than exact numbers.

As a reminder, the IC50 is the concentration that inhibits the measured activity by half.

In series [1] the test system is MRC-5 human lung fibroblast cell line. Description: MTT cytotoxicity assay in MRC-5. Format: cell-based. To be noted: Homo sapiens, MRC5, 72 h incubation. Here is the method:
(§1) The in vitro cytotoxic activity of the novel water-soluble amino acid derivatives of HQCl and their RhCp* and RuCym complexes was measured by the thiazolyl blue tetrazolium bromide (MTT) assay in two human colon adenocarcinoma cell lines (Colo-205 and Colo-320) and in one non-tumoral human lung fibroblast cell line (MRC-5). The results are given in terms of IC50 values (Table 1). Colo-205 is a drug-sensitive cell line with a normal ABCB1 transporter expression pattern, while Colo-320 is multidrug-resistant and overexpresses the ABCB1 system.
(§2) All cell culture reagents were obtained from Sigma-Aldrich and plasticware from Sarstedt (Nümbrecht, Germany). Human colonic Colo-205 doxorubicin-sensitive and Colo-320/MDR-LRP multidrug-resistant adenocarcinoma and MRC-5 human embryonal lung fibroblast cell lines were purchased from LGC Promochem, Teddington, UK. The colonic adenocarcinoma cells were cultured in Roswell Park Memorial Institute (RPMI) 1640 medium supplemented with 10% heat-inactivated fetal bovine serum, 2 mM L-glutamine, 1 mM sodium pyruvate and […]. The MRC-5 cell line was cultured in Eagle’s Minimal Essential Medium (EMEM, Sigma-Aldrich, St. Louis, MO, USA) supplemented with a non-essential amino acid (NEAA) mixture (Sigma-Aldrich, St. Louis, MO, USA) a selection of vitamins, 10% heat-inactivated foetal bovine serum (FBS), 2 mM L-glutamine (Sigma-Aldrich, St. Louis, MO, USA), 1 mM Na-pyruvate (Sigma-Aldrich, St. Louis, MO, USA), nystatin (Sigma-Aldrich, St. Louis, MO, USA) and a penicillin-streptomycin mixture (Sigma-Aldrich, St. Louis, MO, USA) in con-centrations of 100 U/L and 10 mg/L, respectively. The cells were incubated at 37 °C, in a 5% CO2, 95% air atmosphere. All cell lines were detached with Trypsin-Versene (EDTA) solution for 5 min at 37 °C.
(§3) The tested compounds were dissolved in 10% (v/v) DMSO/H2O using 4 mM concentration. Doxorubicin (Merck, Darmstadt, Germany) was used as a positive control. Then stock solutions were diluted in complete culture medium, and two-fold serial dilutions of compounds were prepared in 100 μL of the medium, horizontally. The semi-adherent colonic adenocarcinoma cells were treated with Trypsin-Versene (EDTA) solution. They were adjusted to a density of 1 × 10^4 cells in 100 μL of RPMI 1640 or EMEM medium and were added to each well, with the exception of the medium control wells. The final volume of the wells containing compounds and cells was 200 μL. The plates containing Colo-205, Colo-320 or MRC-5 cells were incubated at 37 °C for 72 h; at the end of the incubation period, 20 μL of MTT solution (from a stock solution of 5 mg/mL) were added to each well. After incubation at 37 °C for 4 h, 100 μL of SDS solution (10% in 0.01 M HCI) were added to each well, and the plates were further incubated at 37 °C overnight. […] The IC50 values were obtained from at least 3 independent experiments.
Background: Formazan colour is commonly taken as a measure of viable cells.

The nature of series [2]: Proton dissociation constants of the ligands (pH-potentiometry, UV-vis, 1H NMR titrations). The series is classed as physicochemical. To be noted: for pKa: aqueous solution, I = 0.2 M KNO3, T = 25.0 °C. The method, then:
pH-potentiometric measurements were carried out at 25.0 ± 0.1 °C in water in the pH range between 2.0 and 11.5 and at a constant ionic strength of 0.2 M KNO3. The titrations were performed in a carbonate-free KOH solution (0.20 M). The exact concentrations of HNO3 and KOH solutions were determined by pH-potentiometric titrations. An Orion 710A pH-meter equipped with a Metrohm combined electrode (type 6.0234.100) and a Metrohm 665 Dosimat burette were used for the pH-potentiometric measurements. […] The average water ionization constant, pKw, was determined as 13.76 ± 0.01, which is in good agreement with the literature data. The initial volume of the samples was 5.0 mL. The ligand concentration was 1.75 or 2.0 mM. Samples were degassed by bubbling purified argon through them for about 10 min prior to the measurements, and the inert gas was also passed over the solutions during the titrations. The computer program Hyperquad2013 [46] was utilized to establish the stoichiometry of the species and to calculate the equilibrium constants, similarly to that performed in our previous works.
Agilent Cary 8454 diode array spectrophotometer was utilized to obtain UV-vis spectra in the wavelength range 190–1100 nm. The path length (ℓ) was 1 cm in most cases (the actual ℓ is always indicated in the legends of the figures). The concentrations of the ligands and complexes were between 88 and 240 µM. For HSA and ct-DNA containing samples, complex concentrations were 100 µM, and 0.5 and 2 equiv. biomolecule were added for kinetic studies, respectively. Individual samples contained 0–20 µM HSA and 0–1.75 mM (nucleotide) ct-DNA. Spectra were always background corrected. The computer program HypSpec was used to obtain stability constants.
Bruker Avance III HD Ascend 500 Plus instrument (Billerica, MA, USA) was used for NMR studies. ^1H NMR spectroscopic measurements were carried out with a WATERGATE water suppression pulse scheme in the presence of 10% (v/v) D2O in most cases. DSS internal standard was added to samples to obtain reference peaks. Complex concentrations were 0.5 mM or 1.0 mM, and 0.5 equiv. HSA was added. ^1H NMR titrations were carried out in the presence of 0.2 M KNO3. With the FHA model peptide, the measurements were performed at 0.5 or 1 mM metal complex concentrations, and 1:1, 1:2 or 2:1 peptide-to-metal complex ratios were applied. The computer program HypSpec was used to obtain stability constants.

Series [3] can be described thus: Distribution coefficients, shake-flask n-octanol/buffered aqueous solution. Format: physicochemical. The conditions noted are these: pH 7.4, n-octanol/buffer, in 100 mM KCl, read-out: logD7.4. The method, then: It is worth noting that these amino acid hybrids have excellent water solubility due to their zwitterionic form, unlike most 8-hydroxyquinolines.
Distribution coefficients of the ligands as well as of the complexes were determined at pH = 7.4 using the traditional shake-flask method in n-octanol/buffered aqueous solution (20 mM phosphate) at different chloride ion concentrations (4, 24 and 100 mM) using UV-vis spectrophotometry for the analysis. The measurement and data evaluation were performed as described in our former work.

In the next series the test system is Ac-Ala–His–Ala-NH2 (AHA). More on the design: method as in PMID 34374386. The conditions noted are these: cited from earlier work.
The next series relates to Ac-Phe–His–Ala-NH2 (FHA). More on the design: method as in PMID 34374386. The conditions noted are these: cited from earlier work.
The target in series [4] is T1, HSA site I (subdomain IIA) (Homo sapiens, UniProt P02768).
T1 construct: purchased Sigma-Aldrich A8763
T1 sequence (P02768 25-609): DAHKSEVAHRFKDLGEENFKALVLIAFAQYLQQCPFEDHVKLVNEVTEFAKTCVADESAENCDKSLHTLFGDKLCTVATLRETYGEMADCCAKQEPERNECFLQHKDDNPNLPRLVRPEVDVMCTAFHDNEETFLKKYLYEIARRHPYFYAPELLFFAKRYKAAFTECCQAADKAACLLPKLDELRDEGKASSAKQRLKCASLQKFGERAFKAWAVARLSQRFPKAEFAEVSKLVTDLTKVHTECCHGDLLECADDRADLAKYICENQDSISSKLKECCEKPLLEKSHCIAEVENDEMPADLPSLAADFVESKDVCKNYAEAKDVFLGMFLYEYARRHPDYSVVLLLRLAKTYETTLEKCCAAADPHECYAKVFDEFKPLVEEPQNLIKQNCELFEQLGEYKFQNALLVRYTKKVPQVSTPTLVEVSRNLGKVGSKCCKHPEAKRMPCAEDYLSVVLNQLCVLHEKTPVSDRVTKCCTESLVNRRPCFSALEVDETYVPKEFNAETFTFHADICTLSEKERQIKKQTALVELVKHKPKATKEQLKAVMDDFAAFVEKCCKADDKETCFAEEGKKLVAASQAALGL
Also on record: method as in PMID 34374386. The conditions noted are these: cited from earlier work.

For series [5], the target named is T2, HSA site II (subdomain IIIA) (Homo sapiens, UniProt P02768).
T2 construct: purchased Sigma-Aldrich A8763
T2 sequence (P02768 25-609): as above
More on the design: method as in PMID 34374386. The conditions noted are these: cited from earlier work.

The subject of series [6] is Colo-205 human colon adenocarcinoma cell line (doxorubicin-sensitive). Also on record: method as in PMID 32500882. The conditions noted are these: cited from earlier work.
Series [7] has as its system Colo-320 human colon adenocarcinoma cell line (multidrug-resistant). Also on record: method as in PMID 32500882. To be noted: cited from earlier work.
On the set-up of series [8]: method as in PMID 32500882. To be noted: cited from earlier work.
Series [9] deals with Colo-205 human colon adenocarcinoma cell line (doxorubicin-sensitive). Description: MTT cytotoxicity assay in Colo-205. The conditions noted are these: Homo sapiens, COLO 205, 72 h incubation. Format: cell-based. Here is the method: as §1, §2, §3
Series [10] concerns Colo-320 human colon adenocarcinoma cell line (multidrug-resistant). Description: MTT cytotoxicity assay in Colo-320. The series is classed as cell-based. To be noted: Homo sapiens, COLO 320, 72 h incubation. Here is the method: as §1, §2, §3
For another series, the system named is Colo-205 cells. The series is described as follows: Annexin V-FITC / propidium iodide apoptosis induction assay, flow cytometry. The series is classed as cell-based, human. To be noted: 3 h induction. An excerpt: 12H-Benzo[α]phenothiazine (M627) and cisplatin were used as positive controls. Annexin-V assay offers the possibility of detecting early phases of apoptosis. Apoptosis is a morphologically and biochemically distinct form of programmed cell death, which is the preferred mode of action for an anticancer compound. PI was used to distinguish between viable, early apoptotic and necrotic or late apoptotic cells. […] In order to better understand the different behavior of the studied compounds, an in-depth analysis of the various solution (physico-)chemical properties of the ligands and complexes were performed.
The assay was carried out using an Annexin V-FITC Apoptosis Detection Kit from Sigma-Aldrich according to the manufacturer’s instructions. The concentration of the Colo-205 cell suspension was adjusted to approximately 0.5 × 10^6 cells per mL in RPMI 1640 medium, and the cell suspension was distributed in 1 mL aliquots into a 24-well plate and then incubated overnight at 37 °C and 5% CO2. The next day, the medium was removed and replaced by 1 mL RPMI 1640 medium containing the compounds except for the control samples. […] After the incubation period, the samples were washed with PBS, and a fresh medium was added to the samples. The cells were incubated overnight at 37 °C and 5% CO2. The next day, 200 μL 0.25% Trypsin (Trypsin-Versen) was added to the samples until cells appeared detached, followed by the addition of 400 μL of medium supplemented with 10% bovine serum. The cells were collected in Eppendorf tubes and centrifuged at 2000× g for 2 min. The harvested cells were re-suspended in a fresh serum-free RPMI 1640 culture medium. After this step, the apoptosis assay was carried out according to the protocol of the kit. The fluorescence was analyzed immediately using a ParTec CyFlow flow cytometer (Partec GmbH, Münster, Germany).
In general terms: A flow cytometer gives signals particle by particle.

Details of series [11]: method as in PMID 32500882. To be noted: cited from earlier work. The source holds these as a separate data set.

With `O=C(O)[C@H]1CCCN1Cc1cc(Cl)c2cccnc2c1O` [HQCl-D-Pro, (R)-5-chloro-7-((proline-1-yl)methyl)8-hydroxyquinoline], it took 5.33 ± 0.44 µM to reach half-maximal inhibition in [1] (IC50). Besides, the pKa was more than 11 in [2] (1H NMR, read-out: pKa (NhPro/ProH+)); 2.32 ± 0.03 in series [2] (1H NMR, read-out: pKa (NqH+)); 7.75 ± 0.02 in series [2] (1H NMR, read-out: pKa (OH)); more than 11 in series [2] (UV-vis, read-out: pKa (NhPro/ProH+)); 2.13 ± 0.03 in series [2] (UV-vis, read-out: pKa (NqH+)); 7.77 ± 0.04 in series [2] (UV-vis, read-out: pKa (OH)). Also, the pKa is more than 11 in series [2] (pH-potentiometry, read-out: pKa (NhPro/ProH+)); less than 2 in [2] (pH-potentiometry, read-out: pKa (NqH+)); 7.71 ± 0.06 in series [2] (pH-potentiometry, read-out: pKa (OH)). Moreover, the “fraction of the negatively charged species (O−, COO−, NhPro/ProH+)” value in series [2] (at pH 7.4) is 30%. For the same compound, the logD in series [3] was -0.02 ± 0.01.
For the compound `Cc1ccc(C(C)C)cc1.O=C(O)[C@@H]1CCC[NH+]1Cc1cc(Cl)c2cccnc2c1[O-].[Cl-].[Cl-].[Ru+2]` [RuCym–HQCl-L-Pro, [RuCym(HQCl-L-Pro)Cl]Cl], the “logK′ (AHA)” value with Ac-Ala–His–Ala-NH2 (AHA) was 4.4. Moreover, in the series with Ac-Phe–His–Ala-NH2 (FHA), the “FHA logKFHA′” value is recorded as 5.1 and the “reaction time with the tripeptides” value is 3 h. Moreover, in [4], the “Trp-214 Quenching logKQ′, Site I” value is 5.7. In addition, in [5], the “DG Displacement logKDG′, Site II” value is 6.1.
Consider `O=C(O)[C@@H]1CCCN1Cc1cc(Cl)c2cccnc2c1O` [HQCl-L-Pro, (S)-5-chloro-7-((proline-1-yl)methyl)8-hydroxyquinoline], for which the IC50 in [6] is 23.4 µM. Also, in series [7], the half-inhibitory concentration (IC50) was 8.5 µM. In series [1], this compound registered an IC50 of 4.57 ± 0.21 µM. In series [8], the “pKa (NH+Pro)” value was more than 11.5, the “pKa (NqH+)” value is listed as 2.36 and the “pKa (OH)” value is given as 7.76.
`COc1cccc2c1C(=O)c1c(O)c3c(c(O)c1C2=O)C[C@@](O)(C(=O)CO)C[C@@H]3O[C@H]1C[C@H](N)[C@H](O)[C@H](C)O1` [doxorubicin, reference compound]: the IC50 came to 0.82 ± 0.16 µM in [1], 0.05 ± 0.01 µM in series [9] and 0.19 ± 0.02 µM in series [10].
As to `c1ccc2c(c1)Nc1c(ccc3ccccc13)S2` [M627, 12H-Benzo[α]phenothiazine, reference compound], in the series with Colo-205 cells (10 μM), the “cell death, gated events” value was 15.2%; the “early apoptosis, gated events” value was 5.27%; the “late apoptosis and necrosis, gated events” value came to 16.8%. Further, in the series with Colo-205 cells (20 μM), the “cell death (Q1), gated events” value was determined as 20.9%; the “early apoptosis (Q3), gated events” value is given as 21.7%; the “late apoptosis and necrosis (Q2), gated events” value is on record as 36.2%.
Consider `Cc1c(C)c(C)[c-](C)c1C.O=C(O)[C@@H]1CCC[NH+]1Cc1cc(Cl)c2cccnc2c1[O-].[Cl-].[Cl-].[Rh+3]` [RhCp*–HQCl-L-Pro, [RhCp*(HQCl-L-Pro)Cl]Cl], for which the “logK′ (AHA)” value in the series with Ac-Ala–His–Ala-NH2 (AHA) is reported as 4.2. Moreover, in the series on Ac-Phe–His–Ala-NH2 (FHA), the “FHA logKFHA′” value is reported as 4.7 and the “reaction time with the tripeptides” value is recorded as “few seconds”. Also, the “stability constant logK of the RhCp* complex” value in series [11] was 13.41. Also, the “Trp-214 Quenching logKQ′, Site I” value in series [4] is given as 5.5. In addition, the “DG Displacement logKDG′, Site II” value in series [5] is 5.6.
Regarding `N.N.[Cl][Pt][Cl]` [cisplatin, reference compound], in the series on Colo-205 cells (15 μM), the “cell death, gated events” value is on record as 3.18%; the “early apoptosis, gated events” value amounted to 1.06%; the “late apoptosis and necrosis, gated events” value worked out at 4.70%.

Values taken from article PMC8570331, “8-Hydroxyquinoline-Amino Acid Hybrids and Their Half-Sandwich Rh and Ru Complexes: Synthesis, Anticancer Activities, Solution Chemistry and Interaction with Biomolecules” (International Journal of Molecular Sciences, 2021).
